Laboratory results taken from US11191775B2, “PAPD5 and PAPD7 inhibitors for treating a hepatitis B infection” (HOFFMANN-LA ROCHE INC., priority 2016, dated 2021).
Read-outs that look alike come from different tables or passages of the source.

Key:
PAPD7 = test: Y3H ULTImate YChemH screen; assay type: binding; parameters: key: confidence score of A (scale A-D); conditions: prey PAPD7; cDNA Human placenta library
Experimental: (§1) The two compounds were provided by Roche to HYBRIGENICS SERVICES SAS and tested for permeability and toxicity. Compounds were then screened against HYBRIGENICS's cDNA Human placenta library (PLA). The screens were carried out according to the optimized cell-to-cell mating protocol developed for Hybrigenics ULTImate Y2H™ using at different compound concentration (Table 2).
(§2) Clones obtained from the screen were picked in 96-well format and clones positive for growth under selective conditions (HIS+) were evaluated in a dependency assay using spot assays. Only clones that were able to grow on selective medium in the presence of the tagged compound were being picked up, processed (cell lysis, PCR, gene sequencing) and mapped for protein alignment using Blast analysis.
(§3) Both proteins PAPD5 (variant 1: NP_001035374; variant 2: NP_001035375) and PAPD7 (XP_005248291) were identified by a numerous number of fragments in the Y3H screen for both compounds (DHQ and THP) as described in the Materials and Method section. The identified proteins were ranked with a confidence score of A (scale A-D) by HYBRIGENICS (Table 6).

PAPD5 variant 1 = test: Y3H ULTImate YChemH screen; assay type: binding; parameters: key: confidence score of A (scale A-D); conditions: prey PAPD5 variant 1; cDNA Human placenta library
Experimental: as §1, §2, §3

HBV = test: HBsAg and HBeAg secretion in HepG2.2.15 cells; assay type: cell-based; conditions: Hepatitis B virus, 72 h, incubated for 3 days, supernatant, CLIA ELISA
Experimental: To evaluate the impact on HBV antigen expression and secretion, supernatants were collected on Day 11. HBV HBsAg and HBeAg levels were measured using CLIA ELISA Kits (Autobio Diagnostic #CL0310-2, #CL0312-2), according to the manufacturer's protocol. Briefly, 25 μL of supernatant per well were transferred to the respective antibody coated microtiter plate and 25 μL of enzyme conjugate reagent were added. The plate was incubated for 60 min on a shaker at room temperature before the wells were washed five times with washing buffer using an automatic washer. 25 μL of substrate A and B were added to each well. The plates were incubated on a shaker for 10 min at room temperature before luminescence was measured using an Envision luminescence reader (Perkin Elmer).
The potency of DHQ and THP and their variants against HBV infection were measured in HepG2.2.15 cells using HBsAg and HBeAg as read out.
HepG2.2.15 cells (Sells et al 1987 Proc Natl Acad Sci USA 84, 1005-1009) were cultured in 96 well plates (15.000 cells/well in 100 uL) in DMEM+GluTaMax-1 (GiBCO Cat. NO. 10569), 1% Pen Strep (Gibco Cat. No. 15140), 10% FBS (Clontech Cat. No. 631106), Geneticin […] (Invitrogen 10131035). The compunds were tested using three-fold serial dilutions in DMSO with a top concentration of 100 μM and 9 serial dilutions. Each compound was tested in quadricate. The cells were incubated for 3 days, supernatents were collected and HBsAg and HBeAg were measured as described in the Materials and Methods section.

PAPD5 variant 2 = test: Y3H ULTImate YChemH screen; assay type: binding; parameters: key: confidence score of A (scale A-D); conditions: prey PAPD5 variant 2; cDNA Human placenta library
Experimental: as §1, §2, §3

[1] = molecular target: T1, PAPD5 var1 (experimental fragment and full length) (Homo sapiens, UniProt Q8NDF8); test: Y3H ULTImate YChemH competition with free compound; assay type: binding; conditions: probe HBX129653 or HBX129654 1 μM, free compound 0-20 μM, FIG. 3-6
T1 construct: PAPD5 var1 full length; host or cells: diploid yeast from YHGX13 (prey) x YPT6AT (DHFR hook)
Experimental: (§4) The competition assays were performed on selective medium at 8 concentrations of the free compound (0, 0.25, 0.5, 1, 2, 5, 10 and 20 μM) and a consistent concentration for the tagged Y3H-compound (1 μM).

[2] = molecular target: T2, PAPD7 varX1 (experimental fragment and full length) (Homo sapiens, UniProt Q5XG87); test: Y3H ULTImate YChemH competition with free compound; assay type: binding; conditions: probe HBX129653 or HBX129654 1 μM, free compound 0-20 μM, FIG. 3-6
T2 construct: PAPD7 var1 full length; host or cells: diploid yeast from YHGX13 (prey) x YPT6AT (DHFR hook)
Experimental: as §4

[3] = tested on: PAPD5 variant 1 and variant 2 prey fragments; test: Y3H ULTImate YChemH 1-by-1 validation, prey fragments; assay type: binding, human; conditions: PAPD5 variant 1 and 2 fragments; tested at 5, 10 and 20 μM; FIG. 1
Experimental: (§5) In this validation step each one identified fragment prey and one chemical probe (HBX129653, HBX129654) is tested in a 1-by-1 experiment. The plasmids from 3 selected preys from the screening library were extracted from the yeast cells, amplified in E. coli and re-transformed into YHGX13 yeast cells. For each interaction, DO1, 1/10, 1/100 and 1/1000 of the diploid yeast culture expressing both hook and prey constructs were spotted on a selective medium without tryptophan, leucine and histidine and supplemented with the chemical probe and FK506. Interactions were tested in duplicate. One plate was used per chemical compound and concentration (DMSO, 5, 10 and 20 μM of HBX129653, 5, 10 and 20 μM of HBX129654, 5 μM of HBX24786 Trimethoprim (TMP) and 5 μM of HBX129634 (TMP-PEG5-OH)). Plates were incubated at 30° C. for 3 days.
(§6) In a first validation step three fragments identified in the first screen were selected for the 1-by-1 validation assay (as described in the Materials and Method section) and tested at three different concentrations (5, 10 and 20 μM) (Table 7).

PAPD7 prey fragment = test: as above; assay type: binding, human; conditions: tested at 5, 10 and 20 μM, FIG. 1
Experimental: as §5, §6

PAPD7 var1 full length = molecular target: T3, PAPD7 var1 full length (Homo sapiens, UniProt Q5XG87); test: Y3H ULTImate YChemH 1-by-1 validation, full length proteins; assay type: binding; conditions: tested at 5, 10 and 20 μM, FIG. 2
T3 construct: PAPD7 var1 full length; host or cells: diploid yeast from YHGX13 (prey) x YPT6AT (DHFR hook)
Description: (§7) The coding sequence of full-length PAPD5var1 (NM_001040284.2) and PAPD7varX1 (XM_005248234.2) were reconstituted from an N-terminal codon-optimized gene fragment (to remove high GC content) and commercially available clones of the C-terminal regions of the proteins and cloned in frame with the Gal4 Activation Domain (AD) into plasmid pP7 (AD-Prey), derived from the original pGADGH (Bartel et al., 1993 in Cellular interactions in development: A practical approach. ed. Hartley, D. A., Oxford University Press, Oxford, pp. 153-179). The constructs were checked by sequencing the entire inserts. For each prey, a mini-mating was carried out between YHGX13 (Y187 ade2-101::IoxP-kanMX-IoxP, matα) transformed with the prey plasmids and YPT6AT yeast cells (mata) transformed with the DHFR hook (Dihydrofolate reductase) to produce a diploid yeast culture. For each interaction, DO1, 1/10, 1/100 and 1/1000 of the diploid yeast culture expressing both hook and prey constructs were spotted on a selective medium without tryptophan, leucine and histidine and supplemented with the chemical probe and FK506. Interactions were tested in duplicate. One plate was used per chemical compound and concentration (DMSO, 5, 10 and 20 μM of HBX129653, 5, 10 and 20 μM of HBX129654, 5 μM of HBX24786 Trimethoprim (TMP) and 5 μM of HBX129634 (TMP-PEG5-OH)). Plates were incubated at 30° C. for 3 days.
(§8) In a second validation step, full length proteins for PAPD5 and PAPD7 were synthesized and used for 1-by-1 validation (as described in the Materials and Method section) with DHQ and THP (Table 8).

PAPD5 var1 full length = molecular target: T4, PAPD5 var1 full length (Homo sapiens, UniProt Q8NDF8); test: as above; assay type: binding; conditions: tested at 5, 10 and 20 μM, FIG. 2
T4 construct: PAPD5 var1 full length; host or cells: diploid yeast from YHGX13 (prey) x YPT6AT (DHFR hook)
Description: as §7, §8

hepatitis C virus (HCV) = test: Activity against hepatitis C virus (data not shown)

T2 sequence (Q5XG87 whole entry, the tested form may be a part): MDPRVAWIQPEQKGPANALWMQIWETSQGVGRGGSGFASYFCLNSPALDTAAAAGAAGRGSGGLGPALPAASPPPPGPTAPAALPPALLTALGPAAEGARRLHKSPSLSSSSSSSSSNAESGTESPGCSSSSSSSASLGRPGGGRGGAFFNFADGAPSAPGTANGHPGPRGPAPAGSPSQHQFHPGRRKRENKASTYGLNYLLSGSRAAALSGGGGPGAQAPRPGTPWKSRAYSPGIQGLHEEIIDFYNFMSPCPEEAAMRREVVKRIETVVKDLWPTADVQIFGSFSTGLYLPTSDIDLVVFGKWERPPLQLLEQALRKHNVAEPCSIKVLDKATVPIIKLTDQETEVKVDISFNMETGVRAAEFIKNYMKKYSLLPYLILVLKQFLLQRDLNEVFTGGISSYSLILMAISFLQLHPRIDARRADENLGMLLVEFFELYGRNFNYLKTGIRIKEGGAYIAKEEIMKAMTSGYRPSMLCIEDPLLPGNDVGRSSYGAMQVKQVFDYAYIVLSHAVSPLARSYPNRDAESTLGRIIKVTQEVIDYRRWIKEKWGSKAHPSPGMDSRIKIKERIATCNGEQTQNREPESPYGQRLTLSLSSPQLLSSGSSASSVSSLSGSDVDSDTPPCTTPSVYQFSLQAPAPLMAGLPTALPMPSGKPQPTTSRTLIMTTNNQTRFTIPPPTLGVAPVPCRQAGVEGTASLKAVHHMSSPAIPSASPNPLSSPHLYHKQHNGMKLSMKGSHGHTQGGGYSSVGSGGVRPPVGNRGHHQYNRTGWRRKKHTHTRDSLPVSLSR
T1 sequence (Q8NDF8 1-698 isoform Q8NDF8-5): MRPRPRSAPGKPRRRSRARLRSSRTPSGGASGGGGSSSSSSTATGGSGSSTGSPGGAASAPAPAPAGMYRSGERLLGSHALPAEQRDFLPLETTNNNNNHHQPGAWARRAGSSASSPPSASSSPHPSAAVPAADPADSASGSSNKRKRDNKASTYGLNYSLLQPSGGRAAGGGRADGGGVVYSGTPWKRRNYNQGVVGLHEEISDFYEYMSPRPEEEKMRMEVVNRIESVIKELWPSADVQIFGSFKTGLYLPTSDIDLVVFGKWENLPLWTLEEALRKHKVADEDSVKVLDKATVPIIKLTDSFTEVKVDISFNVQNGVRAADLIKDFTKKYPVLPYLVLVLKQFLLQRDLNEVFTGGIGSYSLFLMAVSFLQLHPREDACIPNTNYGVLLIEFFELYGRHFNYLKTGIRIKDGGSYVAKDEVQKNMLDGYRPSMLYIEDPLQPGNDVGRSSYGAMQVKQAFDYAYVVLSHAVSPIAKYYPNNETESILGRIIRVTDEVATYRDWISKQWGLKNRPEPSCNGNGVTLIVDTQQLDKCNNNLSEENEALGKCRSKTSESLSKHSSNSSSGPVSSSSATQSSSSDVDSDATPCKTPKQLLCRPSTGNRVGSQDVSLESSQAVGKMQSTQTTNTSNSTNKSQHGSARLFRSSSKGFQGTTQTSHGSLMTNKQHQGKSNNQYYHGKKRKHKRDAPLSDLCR
T3 sequence (Q5XG87 whole entry): as the sequence (Q5XG87 whole entry, the tested form may be a part) above
T4 sequence (Q8NDF8 1-698 isoform Q8NDF8-5): as the sequence (Q8NDF8 1-698 isoform Q8NDF8-5) above

SMILES	Confidence score (PAPD7)	Confidence score (PAPD5 variant 1)	IC50 (HBV; read-out: IC50 HBsAg) [nM]	Confidence score (PAPD5 variant 2)	competition of free compound with chemical probe [1]	competition of free compound with chemical probe [2]	1-by-1 validation of binding to prey fragments [3]	1-by-1 validation of binding to prey fragments (PAPD7 prey fragment)	1-by-1 validation of interaction with full length protein (PAPD7 var1 full length)	1-by-1 validation of interaction with full length protein (PAPD5 var1 full length)	activity against hepatitis C virus (HCV) (hepatitis C virus (HCV))	IC50 (HBV; read-out: IC50 HBeAg) [nM]
COc1cc2c(cc1OCCOCCOCCOCCOCCOCCOc1c(OC)cc(Cc3cnc(N)nc3N)cc1OC)C[C@@H](C(C)(C)C)n1cc(C(=O)O)c(=O)cc1-2 [HBX129653]	A	A	1180									
COc1cc(Cc2cnc(N)nc2N)cc(OC)c1OCCOCCOCCOCCOCCOCCOc1cc(N2CCc3nc(-c4ncccn4)ncc3[C@H]2C)cc(F)c1F [HBX129654]	A		299	A								
COCCCOc1cc2c(cc1OC)-c1cc(=O)c(C(=O)O)cn1[C@@H](C(C)C)C2 [INACT653]					less binding affinity	less binding affinity						
COc1cccc(-c2ncc3c(n2)CCN(c2cc(F)c(F)c(OC)c2)C3)n1 [INACT654]			> 25000									
COCCCOc1cc2c(cc1Cl)-c1cc(=O)c(C(=O)O)cn1[C@H](C(C)C)C2 [MOL653]			3		competition could be observed	competition could be observed	specific binders	specific binders	confirmed at the lowest tested concentration	confirmed at the lowest tested concentration	inactive	7
COc1cc(N2CCc3nc(-c4ncccn4)ncc3[C@H]2C)cc(F)c1F [MOL654]			3		competition could be observed	competition could be observed	specific binders	specific binders	confirmed at the lowest tested concentration	confirmed at the lowest tested concentration	inactive	
